Experiments:
Rat [1] = assay: concentration in plasma after dosing; conditions: dosed: 2-Hydroxy-4-methoxybenzophenone, 8 mg/kg, iv, Male, F344
Mouse [2] = assay: concentration in plasma after dosing; conditions: 0.25 h; dosed: 2-Hydroxy-4-methoxybenzophenone; 50 mg/kg; iv; Male; B6C3F1
Rat [3] = assay: concentration in plasma after dosing; conditions: dosed: 2-Hydroxy-4-methoxybenzophenone, 250 mg/kg, oral, Male, F344
Mouse [4] = assay: concentration in plasma after dosing; conditions: 0.25 h; dosed: 2-Hydroxy-4-methoxybenzophenone; 50 mg/kg; iv; Male; B6C3F1; remark: listed apart in the source
Rat [5] = assay: concentration in plasma after dosing; conditions: dosed: 2-Hydroxy-4-methoxybenzophenone, 250 mg/kg, oral, Male, F344; remark: listed apart in the source
Mouse [6] = assay: concentration in plasma after dosing; conditions: 10 min; dosed: 2-Hydroxy-4-methoxybenzophenone; 50 mg/kg; iv; Female; B6C3F1
Mouse [7] = assay: concentration in plasma after dosing; conditions: 10 min; dosed: 2-Hydroxy-4-methoxybenzophenone; 500 mg/kg; oral; Male; B6C3F1
Mouse [8] = assay: concentration in plasma after dosing; conditions: 2.5 min; dosed: 2-Hydroxy-4-methoxybenzophenone; 250 mg/kg; oral; Male; B6C3F1
Mouse [9] = assay: concentration in plasma after dosing; conditions: dosed: 2-Hydroxy-4-methoxybenzophenone, B6C3F1
Mouse [10] = assay: concentration in plasma after dosing; conditions: 2 h; dosed: 2-Hydroxy-4-methoxybenzophenone; 250 mg/kg; oral; Male; B6C3F1
Rat [11] = assay: concentration in plasma after dosing; conditions: dosed: 2-Hydroxy-4-methoxybenzophenone, 100 mg/kg, oral, Male, F344
Rat [12] = assay: concentration in plasma after dosing; conditions: 0.5 h; dosed: Nitrite; 80 mg/kg; oral; Female; F344
Rat [13] = assay: concentration in plasma after dosing; conditions: 5 min; dosed: Nitrite; 40 mg/kg; oral; Female; F344
Rat [14] = assay: concentration in plasma after dosing; conditions: 10 min; dosed: Nitrite; 40 mg/kg; oral; Male; F344
Rat [15] = assay: concentration in plasma after dosing; conditions: 5 min; dosed: Nitrite; 80 mg/kg; oral; Female; F344
Rat [16] = assay: concentration in brain after dosing; conditions: 192 h; dosed: Perfluorooctanoic acid; 12 mg/kg; oral; Male; Harlan Sprague Dawley
Rat [17] = assay: concentration in plasma after dosing; conditions: dosed: Fluorotelomer alcohol 8+2, 12 mg/kg, oral, Male, Harlan Sprague Dawley
Rat [18] = assay: concentration in liver after dosing; conditions: 6 h; dosed: Perfluorooctanoic acid; 12 mg/kg; oral; Male; Harlan Sprague Dawley
Rat [19] = assay: concentration in kidney after dosing; conditions: 6 h; dosed: Perfluorooctanoic acid; 12 mg/kg; oral; Male; Harlan Sprague Dawley
Rat [20] = assay: concentration in plasma after dosing; conditions: dosed: 678-39-7, 12 mg/kg, iv, Male, F344
Rat [21] = assay: concentration in kidney after dosing; conditions: 528 h; dosed: Perfluorooctanoic acid; 12 mg/kg; oral; Male; Harlan Sprague Dawley
Rat [22] = assay: concentration in plasma after dosing; conditions: dosed: Fluorotelomer alcohol 8+2, 12 mg/kg, oral, Male, Harlan Sprague Dawley; remark: listed apart in the source
Rat [23] = assay: concentration in liver after dosing; conditions: 192 h; dosed: Perfluorooctanoic acid; 12 mg/kg; oral; Male; Harlan Sprague Dawley
Rat [24] = assay: concentration in plasma after dosing; conditions: 1.5 h; dosed: Potassium Perfluorobutane Sulfonate; 4 mg/kg; iv; Male; F344
Rat [25] = assay: concentration in plasma after dosing; conditions: dosed: Potassium Perfluorobutane Sulfonate, 4 mg/kg, iv, Male, F344
Rat [26] = assay: concentration in plasma after dosing; conditions: dosed: Potassium Perfluorobutane Sulfonate, 4 mg/kg, iv, Male, F344; remark: listed apart in the source
Rat [27] = assay: concentration in plasma after dosing; conditions: dosed: Potassium Perfluorobutane Sulfonate, 4 mg/kg, iv, Male, F344; remark: listed apart in the source
rat [28] = assay: concentration in plasma after dosing; conditions: dosed: benzo[a]pyrene, 100 ug/m^3, inhalation, duration: 4 hr, F344
rat [29] = assay: amount in urine after dosing (umol); conditions: dosed: methanol, 100 mg/kg, iv, male, CDF(F344)/CrlBR

COc1ccc(C(=O)c2ccccc2)c(O)c1 [2-Hydroxy-4-methoxybenzophenone]
concentration in plasma [ng/mL]
Conditions | 0.25 h | 3 h | 4 h | 10 h | 10 min
Rat [1] | – | – | – | 8.52 | 3770
Rat [3] | – | 91.3 | – | – | 357
Rat [5] | 318 | – | 48.1 | – | –
Rat [11] | 218 | 6.64 | 28.5 | – | 106

Conditions | concentration in plasma [ng/mL]
Mouse [2] | 7110
Mouse [4] | 7710
Mouse [6] | 8410
Mouse [7] | 93.1
Mouse [8] | 18.2
Mouse [10] | 34

concentration in plasma [ng/mL], Mouse [9]
Conditions | 0.25 h | 2 h | 2.5 min | 3 h | 10 min
50 mg/kg, iv, Female | 4570 | 259 | – | 193 | 9660
50 mg/kg, iv, Male | 5620 | 279 | – | 235 | 11500
100 mg/kg, oral, Female | 103 | 20.1 | 6.58 | 11.8 | 57.3
100 mg/kg, oral, Male | 62.2 | 36.5 | 13.4 | 19.3 | 41.5
250 mg/kg, oral, Female | 260 | 45.8 | 22 | 264 | 165
250 mg/kg, oral, Male | 519 | 54.8 | 15.7 | 41.9 | 69.5
500 mg/kg, oral, Female | 2950 | 11500 | – | – | 526
500 mg/kg, oral, Male | 238 | 73.1 | – | – | 176

O=N[O-] [Nitrite]
Conditions | concentration in plasma [ng/mL]
Rat [12] | 30200
Rat [13] | 8500
Rat [14] | 2600
Rat [15] | 9600

O=C(O)C(F)(F)C(F)(F)C(F)(F)C(F)(F)C(F)(F)C(F)(F)C(F)(F)F [Perfluorooctanoic acid]
Conditions | concentration in brain [ng/g] | concentration in kidney [ng/g] | concentration in liver [ng/g]
Rat [16] | 543 | – | –
Rat [18] | – | – | 57200
Rat [19] | – | 43100 | –
Rat [21] | – | 6860 | –
Rat [23] | – | – | 46900

concentration in plasma [ng/mL]
Conditions | 3 h | 5 min | 48 h | 192 h
Rat [17] | – | – | 657 | 424
Rat [20] | 485 | 58.3 | – | –
Rat [22] | – | – | 614 | 399

O=S(=O)([O-])C(F)(F)C(F)(F)C(F)(F)C(F)(F)F.[K+] [Potassium Perfluorobutane Sulfonate]
Conditions | concentration in plasma [ng/mL]
Rat [24] | 11400

concentration in plasma [ng/mL]
Conditions | 0.25 h | 0.75 h | 6 h | 24 h
Rat [25] | 15900 | – | 47.5 | –
Rat [26] | – | 21100 | – | 171
Rat [27] | 26000 | – | 7280 | –

c1ccc2c(c1)cc1ccc3cccc4ccc2c1c34 [benzo[a]pyrene]
concentration in plasma [ng/mL], rat [28]
Conditions | 0.05 h | 1 h | 2 h | 4 h
female | 10 | 23 | 11 | 1.07
male | 14.9 | 18 | 12 | 2

CO [methanol]
rat [29]
Conditions | amount in urine
0.9988 h | 1.09
2.972 h | 5.07
5.961 h | 7.79
9.961 h | 11.5
11.92 h | 11.7
14.89 h | 11.7
